In patent US11053204B2, “Pyrimidinyloxy benzene derivatives as herbicides” (FMC Corporation, priority 2015, dated 2021):

Experiments:
Assay type in all cases: in vivo
[1] = system: barnyardgrass (Echinochloa crus-galli); assay: Test B flooded paddy test, plant response rating; conditions: 250 g ai/ha; Flood; scale of 0 to 100 where 0 is no effect and 100 is complete control; 13 to 15 days
Method in brief: (§1)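 Under a constant 3 cm flood, test compounds went directly into the paddy water. Following 13 to 15 days of greenhouse growth, treated species and controls were compared by eye.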

rice (Oryza sativa) = assay: Test B flooded paddy test, plant response rating; conditions: 250 g ai/ha; Flood; scale of 0 to 100 where 0 is no effect and 100 is complete control; 13 to 15 days
Method in brief: as §1

[2] = system: sedge, umbrella (small-flower umbrella sedge, Cyperus difformis); assay: Test B flooded paddy test, plant response rating; conditions: 250 g ai/ha; Flood; scale of 0 to 100 where 0 is no effect and 100 is complete control; 13 to 15 days
Method in brief: as §1

[3] = system: blackgrass (Alopecurus myosuroides); assay: Test C preemergence, plant response rating; conditions: Preemergence
Method in brief: (§2)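 Pre-emergence: seeds sown in loam soil–sand blend or silt loam and sprayed with test chemicals in a non-phytotoxic solvent mixture with surfactant. Post-emergence: plants 2 to 18 cm (1- to 4-leaf stage) in peat-based potting medium, same formulation. Greenhouse 13 to 15 d; visual rating 0 (no effect) to 100 (complete control) versus controls.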

corn (Zea mays) = assay: Test C preemergence, plant response rating; conditions: Preemergence
Method in brief: as §2

[4] = system: crabgrass, large (large crabgrass, Digitaria sanguinalis); assay: Test C preemergence, plant response rating; conditions: Preemergence
Method in brief: as §2

[5] = system: foxtail, giant (giant foxtail, Setaria faberii); assay: Test C preemergence, plant response rating; conditions: Preemergence
Method in brief: as §2

[6] = system: lambsquarters (Chenopodium album); assay: Test C preemergence, plant response rating; conditions: Preemergence
Method in brief: as §2

[7] = system: morningglory (Ipomoea coccinea); assay: Test C preemergence, plant response rating; conditions: Preemergence
Method in brief: as §2

[8] = system: nutsedge, yellow (yellow nutsedge, Cyperus esculentus); assay: Test C preemergence, plant response rating; conditions: Preemergence
Method in brief: as §2

[9] = system: oilseed rape (Brassica napus); assay: Test C preemergence, plant response rating; conditions: Preemergence
Method in brief: as §2

[10] = system: ragweed (common ragweed, Ambrosia elatior); assay: Test C preemergence, plant response rating; conditions: Preemergence
Method in brief: as §2

[11] = system: ryegrass, Italian (Italian ryegrass, Lolium multiflorum); assay: Test C preemergence, plant response rating; conditions: Preemergence
Method in brief: as §2

soybean (Glycine max) = assay: Test C preemergence, plant response rating; conditions: Preemergence
Method in brief: as §2

[12] = system: velvetleaf (Abutilon theophrasti); assay: Test C preemergence, plant response rating; conditions: Preemergence
Method in brief: as §2

[13] = system: waterhemp (common waterhemp, Amaranthus rudis); assay: Test C preemergence, plant response rating; conditions: Preemergence
Method in brief: as §2

[14] = system: wheat (winter wheat, Triticum aestivum); assay: Test C preemergence, plant response rating; conditions: Preemergence
Method in brief: as §2

[15] = system: surinam grass (Brachiaria decumbens); assay: Test C preemergence, plant response rating
[16] = system: wild poinsettia (Euphorbia heterophylla); assay: Test C preemergence, plant response rating
[17] = system: oat, wild (wild oat Avena fatua); assay: Test C preemergence, plant response rating

SMILES: CCCC(=O)c1c(Br)cccc1Oc1ncc(Cl)cn1 [Compound 75]
- Plant response rating, Barnyardgrass [1]: 40
- Plant response rating, Rice (rice (Oryza sativa)): 35
- Plant response rating, Sedge, Umbrella [2]: 95
- Plant response rating, Blackgrass ([3]; 62 g ai/ha, scale of 0 to 100): 80
- Plant response rating, Blackgrass ([3]; 125 g ai/ha, scale of 0 to 100): 75
- Plant response rating, Blackgrass ([3]; 16 g ai/ha, scale 0 to 100): 0
- Plant response rating, Blackgrass ([3]; 31 g ai/ha, scale 0 to 100): 5
- Plant response rating, Corn (corn (Zea mays); 62 g ai/ha, scale of 0 to 100): 0
- Plant response rating, Corn (corn (Zea mays); 125 g ai/ha, scale of 0 to 100): 5
- Plant response rating, Corn (corn (Zea mays); 16 g ai/ha, scale 0 to 100): 0
- Plant response rating, Corn (corn (Zea mays); 31 g ai/ha, scale 0 to 100): 0
- Plant response rating, Crabgrass, Large ([4]; 62 g ai/ha, scale of 0 to 100): 98
- Plant response rating, Crabgrass, Large ([4]; 125 g ai/ha, scale of 0 to 100): 98
- Plant response rating, Crabgrass, Large ([4]; 16 g ai/ha, scale 0 to 100): 65
- Plant response rating, Crabgrass, Large ([4]; 31 g ai/ha, scale 0 to 100): 85
- Plant response rating, Foxtail, Giant ([5]; 62 g ai/ha, scale of 0 to 100): 65
- Plant response rating, Foxtail, Giant ([5]; 125 g ai/ha, scale of 0 to 100): 98
- Plant response rating, Foxtail, Giant ([5]; 16 g ai/ha, scale 0 to 100): 0
- Plant response rating, Foxtail, Giant ([5]; 31 g ai/ha, scale 0 to 100): 25
- Plant response rating, Lambsquarters ([6]; 125 g ai/ha, scale of 0 to 100): 70
- Plant response rating, Lambsquarters ([6]; 16 g ai/ha, scale 0 to 100): 0
- Plant response rating, Lambsquarters ([6]; 31 g ai/ha, scale 0 to 100): 10
- Plant response rating, Lambsquarters ([6]; 62 g ai/ha, scale 0 to 100): 35
- Plant response rating, Morningglory ([7]; 125 g ai/ha, scale of 0 to 100): 10
- Plant response rating, Morningglory ([7]; 16 g ai/ha, scale 0 to 100): 0
- Plant response rating, Morningglory ([7]; 31 g ai/ha, scale 0 to 100): 0
- Plant response rating, Morningglory ([7]; 62 g ai/ha, scale 0 to 100): 20
- Plant response rating, Nutsedge, Yellow ([8]; 125 g ai/ha, scale of 0 to 100): 20
- Plant response rating, Nutsedge, Yellow ([8]; 16 g ai/ha, scale 0 to 100): 0
- Plant response rating, Nutsedge, Yellow ([8]; 31 g ai/ha, scale 0 to 100): 0
- Plant response rating, Nutsedge, Yellow ([8]; 62 g ai/ha, scale 0 to 100): 0
- Plant response rating, Oilseed Rape ([9]; 125 g ai/ha, scale of 0 to 100): 40
- Plant response rating, Oilseed Rape ([9]; 16 g ai/ha, scale 0 to 100): 0
- Plant response rating, Oilseed Rape ([9]; 31 g ai/ha, scale 0 to 100): 0
- Plant response rating, Oilseed Rape ([9]; 62 g ai/ha, scale 0 to 100): 10
- Plant response rating, Ragweed ([10]; 125 g ai/ha, scale of 0 to 100): 5
- Plant response rating, Ragweed ([10]; 16 g ai/ha, scale 0 to 100): 0
- Plant response rating, Ragweed ([10]; 31 g ai/ha, scale 0 to 100): 0
- Plant response rating, Ragweed ([10]; 62 g ai/ha, scale 0 to 100): 0
- Plant response rating, Ryegrass, Italian ([11]; 125 g ai/ha, scale of 0 to 100): 15
- Plant response rating, Ryegrass, Italian ([11]; 16 g ai/ha, scale 0 to 100): 0
- Plant response rating, Ryegrass, Italian ([11]; 31 g ai/ha, scale 0 to 100): 5
- Plant response rating, Ryegrass, Italian ([11]; 62 g ai/ha, scale 0 to 100): 5
- Plant response rating, Soybean (soybean (Glycine max); 125 g ai/ha, scale of 0 to 100): 50
- Plant response rating, Soybean (soybean (Glycine max); 16 g ai/ha, scale 0 to 100): 0
- Plant response rating, Soybean (soybean (Glycine max); 31 g ai/ha, scale 0 to 100): 0
- Plant response rating, Soybean (soybean (Glycine max); 62 g ai/ha, scale 0 to 100): 10
- Plant response rating, Velvetleaf ([12]; 125 g ai/ha, scale of 0 to 100): 25
- Plant response rating, Velvetleaf ([12]; 16 g ai/ha, scale 0 to 100): 0
- Plant response rating, Velvetleaf ([12]; 31 g ai/ha, scale 0 to 100): 5
- Plant response rating, Velvetleaf ([12]; 62 g ai/ha, scale 0 to 100): 35
- Plant response rating, Waterhemp ([13]; 125 g ai/ha, scale of 0 to 100): 98
- Plant response rating, Waterhemp ([13]; 16 g ai/ha, scale 0 to 100): 75
- Plant response rating, Waterhemp ([13]; 31 g ai/ha, scale 0 to 100): 95
- Plant response rating, Waterhemp ([13]; 62 g ai/ha, scale 0 to 100): 98
- Plant response rating, Wheat ([14]; 125 g ai/ha, scale of 0 to 100): 10
- Plant response rating, Wheat ([14]; 16 g ai/ha, scale 0 to 100): 0
- Plant response rating, Wheat ([14]; 31 g ai/ha, scale 0 to 100): 0
- Plant response rating, Wheat ([14]; 62 g ai/ha, scale 0 to 100): 10
- Plant response rating, Surinam Grass ([15]; 16 g ai/ha, scale 0 to 100): 0
- Plant response rating, Surinam Grass ([15]; 31 g ai/ha, scale 0 to 100): 30
- Plant response rating, Surinam Grass ([15]; 62 g ai/ha, scale 0 to 100): 35
- Plant response rating, Surinam Grass ([15]; 125 g ai/ha, scale of 0 to 100): 80
- Plant response rating, Poinsettia, Wild ([16]; 16 g ai/ha, scale 0 to 100): 10
- Plant response rating, Poinsettia, Wild ([16]; 31 g ai/ha, scale 0 to 100): 40
- Plant response rating, Poinsettia, Wild ([16]; 62 g ai/ha, scale 0 to 100): 35
- Plant response rating, Poinsettia, Wild ([16]; 125 g ai/ha, scale of 0 to 100): 35
- Plant response rating, Oat, Wild ([17]; 16 g ai/ha, scale 0 to 100): 0
- Plant response rating, Oat, Wild ([17]; 31 g ai/ha, scale 0 to 100): 0
- Plant response rating, Oat, Wild ([17]; 62 g ai/ha, scale 0 to 100): 0
- Plant response rating, Oat, Wild ([17]; 125 g ai/ha, scale of 0 to 100): 5
